Test results: patent publication US9676754B2, “Triazolone compounds and uses thereof” (Inception 2, Inc., priority 2012, dated 2017)
Read-outs that look alike come from different tables or passages of the source.

How the values were obtained:
Estrogen Receptor β = molecular target: T1, Estrogen Receptor β (Homo sapiens, UniProt Q92731); assay: Target selectivity counterscreen, Estrogen Receptor β reporter assay; type: cell-based; settings: receptor agonist at ~EC80
T1 construct: host or cells: engineered reporter cells of the kit
T1 sequence (Q92731 whole entry): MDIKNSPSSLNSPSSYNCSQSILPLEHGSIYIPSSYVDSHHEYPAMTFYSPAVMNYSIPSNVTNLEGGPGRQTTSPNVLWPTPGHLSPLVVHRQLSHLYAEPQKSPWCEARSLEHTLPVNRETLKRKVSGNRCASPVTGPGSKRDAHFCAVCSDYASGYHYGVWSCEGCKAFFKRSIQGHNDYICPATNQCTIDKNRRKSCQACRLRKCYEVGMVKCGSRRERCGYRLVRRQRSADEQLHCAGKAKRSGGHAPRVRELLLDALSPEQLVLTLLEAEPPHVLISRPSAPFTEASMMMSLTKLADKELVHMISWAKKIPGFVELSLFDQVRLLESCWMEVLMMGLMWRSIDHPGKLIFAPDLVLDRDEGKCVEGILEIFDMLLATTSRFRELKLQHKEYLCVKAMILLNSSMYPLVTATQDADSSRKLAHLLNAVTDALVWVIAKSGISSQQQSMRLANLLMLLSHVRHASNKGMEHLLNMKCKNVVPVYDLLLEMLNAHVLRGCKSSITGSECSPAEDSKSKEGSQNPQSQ
Experimental: (§1) Target Selectivity Assays
(§2) To determine species selectivity, a Mouse PPARα Reporter Assay System was used (Indigo Biosciences, Cat. #M00111). Activity of test compounds to antagonize or agonize other isoforms of human PPAR, for example β/δ and γ, were assessed using the corresponding kits from Indigo Biosciences (Cat. #IB00121 and #IB00101, respectively). In addition to PPAR activity, compounds were also screened for activity against other nuclear hormone receptors including Estrogen Receptor β, Glucocorticoid Receptor and Thyroid Receptor β using commercially available kits (Indigo Biosciences, Cat. #IB00411, IB00201 and IB01101, respectively). Each assay system from Indigo Biosciences uses technology analogous to the human PPARα kit, with the variance being that the cells used for each assay were engineered to over-express the receptor of interest. In addition, the appropriate receptor agonist (included with each kit) was used at ˜EC80 for assays in which antagonist potency was being assessed.

B16F10 melanoma cells = assay: In vivo cancer model: B16F10 model of pulmonary metastasis; parameters: species or system C57BL/6 mice; settings: oral doses 0.3, 3 and 30 mg/kg daily, day 21, FIG. 1
Experimental: In Vivo Cancer Model: B16F10 Model of Pulmonary Metastasis
B16F10 cells were cultured in standard growth media, harvested when approximately 50% confluent and injected into C57BL/6 mice via the tail vein (50,000 cells per mouse in 200 μL). Mice were treated daily with test compound. On day 21, mice were euthanized. Lungs were harvested and placed into Fekete's solution overnight to facilitate visualization of the tumors. Black nodules were enumerated.
Statistics were performed by ANOVA with Dunnett's Multiple Comparison Test post-hoc to determine statistical differences from vehicle treatment group. * denotes P<0.05, while *** denotes P<0.001.

PPAR beta/delta = molecular target: T2, PPAR beta/delta (Homo sapiens, UniProt Q03181); assay: Target selectivity counterscreen, PPAR β/δ reporter assay; type: cell-based; settings: receptor agonist at ~EC80
T2 construct: host or cells: engineered reporter cells of the kit (analogous to the human PPARα kit)
T2 sequence (Q03181 1-441): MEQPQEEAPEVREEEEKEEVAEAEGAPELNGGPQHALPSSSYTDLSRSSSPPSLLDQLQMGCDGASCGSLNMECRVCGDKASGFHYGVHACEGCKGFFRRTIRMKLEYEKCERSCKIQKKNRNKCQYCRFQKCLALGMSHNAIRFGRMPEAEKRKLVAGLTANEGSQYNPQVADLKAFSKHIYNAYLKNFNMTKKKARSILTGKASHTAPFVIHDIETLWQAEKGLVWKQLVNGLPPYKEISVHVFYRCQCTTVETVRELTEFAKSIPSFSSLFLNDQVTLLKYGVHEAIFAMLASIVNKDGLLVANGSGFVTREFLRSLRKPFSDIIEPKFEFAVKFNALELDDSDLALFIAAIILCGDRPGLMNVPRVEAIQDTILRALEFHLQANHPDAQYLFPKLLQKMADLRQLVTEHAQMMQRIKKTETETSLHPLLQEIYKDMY
Experimental: as §1, §2

Glucocorticoid Receptor = molecular target: T3, Glucocorticoid Receptor (Homo sapiens, UniProt P04150); assay: Target selectivity counterscreen, Glucocorticoid Receptor reporter assay; type: cell-based; settings: receptor agonist at ~EC80
T3 construct: host or cells: engineered reporter cells of the kit
T3 sequence (P04150 1-777): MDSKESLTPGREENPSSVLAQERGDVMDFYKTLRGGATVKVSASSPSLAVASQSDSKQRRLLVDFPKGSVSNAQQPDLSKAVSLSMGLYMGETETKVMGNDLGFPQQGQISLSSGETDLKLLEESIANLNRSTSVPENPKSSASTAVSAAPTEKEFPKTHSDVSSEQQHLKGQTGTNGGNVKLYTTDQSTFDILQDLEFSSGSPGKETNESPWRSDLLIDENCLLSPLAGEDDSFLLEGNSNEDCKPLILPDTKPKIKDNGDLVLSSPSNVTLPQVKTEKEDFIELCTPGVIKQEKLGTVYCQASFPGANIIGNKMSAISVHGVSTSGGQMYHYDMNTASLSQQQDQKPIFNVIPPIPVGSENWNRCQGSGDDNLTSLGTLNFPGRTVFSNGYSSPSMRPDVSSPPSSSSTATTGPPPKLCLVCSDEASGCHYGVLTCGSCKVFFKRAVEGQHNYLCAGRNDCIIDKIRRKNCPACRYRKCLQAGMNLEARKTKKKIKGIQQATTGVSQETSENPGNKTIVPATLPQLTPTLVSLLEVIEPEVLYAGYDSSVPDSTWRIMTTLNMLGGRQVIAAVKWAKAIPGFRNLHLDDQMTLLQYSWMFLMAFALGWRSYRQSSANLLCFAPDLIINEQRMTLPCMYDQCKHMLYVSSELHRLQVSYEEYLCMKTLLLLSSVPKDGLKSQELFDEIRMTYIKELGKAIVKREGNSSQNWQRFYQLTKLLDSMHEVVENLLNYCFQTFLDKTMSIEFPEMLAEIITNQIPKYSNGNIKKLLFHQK
Experimental: as §1, §2

Human PPARα = molecular target: T4, Human PPARα (Homo sapiens, UniProt Q07869); assay: Human PPARα Reporter Assay (luciferase); type: cell-based
T4 construct: host or cells: proprietary non-human mammalian cells
T4 sequence (Q07869 1-468): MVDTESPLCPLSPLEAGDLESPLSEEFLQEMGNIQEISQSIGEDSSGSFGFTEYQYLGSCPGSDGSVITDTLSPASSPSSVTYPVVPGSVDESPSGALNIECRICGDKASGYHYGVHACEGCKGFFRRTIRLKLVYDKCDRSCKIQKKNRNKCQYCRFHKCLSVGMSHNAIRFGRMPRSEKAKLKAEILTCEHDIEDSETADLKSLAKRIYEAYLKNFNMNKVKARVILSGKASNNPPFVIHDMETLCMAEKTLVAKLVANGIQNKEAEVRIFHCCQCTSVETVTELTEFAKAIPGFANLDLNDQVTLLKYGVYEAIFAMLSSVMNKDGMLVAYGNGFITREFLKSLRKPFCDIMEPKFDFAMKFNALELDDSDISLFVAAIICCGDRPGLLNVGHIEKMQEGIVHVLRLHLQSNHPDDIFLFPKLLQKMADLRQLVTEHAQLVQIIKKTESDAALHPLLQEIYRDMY
Experimental: Human PPARα Reporter Assay
The screening of test compounds for agonist or antagonist activities against human PPARα receptors was performed using a commercial kit, Human PPARα Reporter Assay System (Indigo Biosciences, Cat. #IB00111).
This nuclear receptor assay system utilizes proprietary non-human mammalian cells engineered to provide constitutive, high-level expression of Human PPARα. Because these cells incorporate a PPARα-responsive luciferase reporter gene, quantifying expressed luciferase activity provides a sensitive surrogate measure of PPARα activity in the treated cells. The primary application of this reporter assay system is in the screening of test samples to quantify any functional activity, either agonist or antagonist, that they may exert against human PPARα. […] Briefly, the reporter cells are dispensed into wells of the assay plate and then immediately dosed with test compounds. Following an overnight incubation, the treatment media are discarded and Luciferase Detection Reagent (LDR) is added. The intensity of light emission from the ensuing luciferase reaction provides a sensitive measure that is directly proportional to the relative level of PPARα activation in the reporter cells.

CCOc1ccc(-c2cccc(CCCc3nn(Cc4ccc(C(C)(C)C)cc4)c(=O)n3CC)c2)cc1CC(=O)O [Example 6, 2-(3′-(3-(1-(4-(tert-Butyl)benzyl)-4-ethyl-5-oxo-4,5-dihydro-1H-1,2,4-triazol-3-yl)propyl)-4-ethoxy-[1,1′-biphenyl]-3-yl)acetic acid] was tested, and the IC50 (Estrogen Receptor β) was 19.4 µM, the “metastasis of B16F10 melanoma cells to the lung (black nodules enumerated)” value (B16F10 melanoma cells) was “inhibition of metastasis” and the IC50 (PPAR beta/delta) was 13.3 µM. It also gave an IC50 (Glucocorticoid Receptor) of 18.2 µM, an IC50 (Human PPARα; antagonist activity, luciferase reporter cells, overnight incubation, read-out: Human PPARα Reporter Assay-Luciferase IC50) of 58 nM and an IC50 (Human PPARα; counterscreen assay results table, read-out: PPAR alpha IC50) of 58 nM.
